US20080139520A1, “Altering cholesterol and fat uptake by novel allosteric inhibitors of pancreatic phospholipase A2” (priority 2006, published 2008)
Values joined by “and” are separate entries in the source; they are usually repeats but may differ in a detail not shown here. Identical values can stand only once. Like-named read-outs stand apart in the source and are kept apart here.

Columns and labels:
[1] = biological target: T1, Wild-Type PLA2 (Sus scrofa, UniProt P00592); test: Decylsulfate binding to wild-type PLA2 (3W), Trp emission; design: species or system pig
T1 construct: made in house
Method: (§1) Fluorescence emission spectrum or time course of the intensity change from tryptophan or the resonance energy transfer probe TMA-DPH were measured in the ratio mode on SLM-Aminco AB2 in a 1 cm cuvette [31, 32] in 1.6 ml stirred buffer containing 1 or 2 μM PLA2 in 10 mM Tris, 5 mM CaCl2 and 20 mM NaCl at pH 8.0 and 24° C. The slit-widths were 4 nm with excitation at 280.
(§2) For example, as summarized in Table 3, the main effect of the presence of bile salt is on the Trp-signal intensities rather than the dissociation constant for decylsulfate.

[2] = biological target: T2, PLA2 W3F/R6W mutant (Sus scrofa, UniProt P00592, R28W/W25F); test: Decylsulfate binding to W3F/R6W mutant PLA2 (6W), Trp emission; design: species or system pig
T2 construct: made in house
Method: as §1, §2

[3] = biological target: T3, pig pancreatic IB PLA2 (Sus scrofa, UniProt P00592); test: Rate-lowering of hydrolysis of DMPC + 0.05 mole fraction cholate vesicles by pig pancreatic PLA2; assay type: biochemical; settings: for Relative Rate-lowering (%) Activity, pPLA2: 0.03 mole fraction, DMPC + 0.05 mole fraction cholate
T3 construct: made in house
Excerpt: (§3) Independent support for selective binding of the rate lowering compounds to a regulatory site on PLA2 comes from the rate-lowering effect of such compounds on the hydrolysis of DMPC vesicles containing 0.05 mole fraction cholate.
(§4) Scores of other compounds in guggul were not active.

[4] = biological target: T4, human pancreatic IB PLA2 (Homo sapiens, UniProt P04054); test: Rate-lowering of hydrolysis of DMPC + 0.05 mole fraction cholate vesicles by human pancreatic PLA2; assay type: biochemical; settings: 0.03 mole fraction; DMPC + 0.05 mole fraction cholate
T4 construct: gift of Dr. Suren Tatulian (Orlando, Fla.)
Excerpt: as §3, §4

[5] = biological target: T5, WT (wild type) pig PLA2 (Sus scrofa, UniProt P00592); test: PLA2 catalyzed hydrolysis of sonicated DMPC vesicles with added bile salt (pH-stat); assay type: biochemical; settings: DMPC vesicles, pancreatic PLA2
T5 construct: made in house
Method: Aqueous dispersion of phospholipid was sonicated in a bath type sonicator. Virtually transparent suspension was annealed for at least 4 hours at room temperature before use. Reaction progress for the PLA2 catalyzed hydrolysis of sonicated DMPC (1 mM) vesicles was measured by pH-stat titration (Radiometer) with 1 mM 2-aminopropanediol in 4 ml reaction buffer containing 5 mM CaCl2 for DMPC (or 0.5 mM for DMPM), 1 mM NaCl, […] atmosphere. Reaction was initiated by adding 0.1 μg enzyme in 1-10 μl solution. The pH stat method was also used for monitoring the rate of hydrolysis of DMPM (0.4 mM) vesicles in the presence of polymyxin [27-29], or of the mixed-micelles of POPC with bile salts in 1:2 ratio [13, 30].
Delay before the onset of the stationary phase of the PLA2 catalyzed reaction progress for the hydrolysis of zwitterionic phospholipids has been extensively characterized. […] The apparent rates in FIG. 3 were obtained from the initial slopes of such reaction progress during which <5% of the total substrate is hydrolyzed.
The CMC of the bile salts used in this study range between 0.8 to 5 mM.

[6] = reported in literature [54-56]; cited from earlier work
[7] = biological target: T6, PLA2 (Sus scrofa, UniProt P00592); test: Isothermal calorimetric titration of PLA2 with bile salt; assay type: binding, pig; settings: ITC, 8.5 μM PLA2; read-out: KEB
T6 construct: made in house
Method: ITC titration of PLA2 with <1 mM (below the CMC) bile salt stock solution was carried out on the Microcal calorimeter (model VP-itc) with cell volume of 1.42 ml with stirring at 300 rpm. Successive injections were made every 5 min. Standard software was used for the peak integration. The heat change with the internal calibration associated with the dilution of the titrant in the […] was subtracted from the heat change obtained by the injection of the bile salt in the presence of 8.5 μM PLA2. The net heat change per injection in the presence of PLA2 was integrated to obtain the total heat change as a function of the total added amphiphile concentration.

T2 sequence (P00592 23-146 W25F/R28W): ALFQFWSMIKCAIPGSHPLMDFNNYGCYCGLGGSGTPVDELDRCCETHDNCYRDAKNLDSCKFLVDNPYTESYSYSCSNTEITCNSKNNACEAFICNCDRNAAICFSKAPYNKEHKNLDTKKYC
T1 sequence (P00592 23-146): as the sequence (P00592 23-146 W25F/R28W) above, with F3W, W6R counted along it
T3 sequence (P00592 23-146): as the sequence (P00592 23-146 W25F/R28W) above, with F3W, W6R counted along it
T4 sequence (P04054 23-148): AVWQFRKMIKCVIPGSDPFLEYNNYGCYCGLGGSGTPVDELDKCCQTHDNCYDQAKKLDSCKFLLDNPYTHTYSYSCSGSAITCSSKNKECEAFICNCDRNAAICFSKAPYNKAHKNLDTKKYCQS
T6 sequence (P00592 23-146): as the sequence (P00592 23-146 W25F/R28W) above, with F3W, W6R counted along it
T5 sequence (P00592 23-146): as the sequence (P00592 23-146 W25F/R28W) above, with F3W, W6R counted along it

CCCCCCCCCCOS(=O)(=O)O [Decylsulfate]
a1 decylsulfate binding ([1]; 3W + 0.2 mM TCDOC): −0.03 | a2 decylsulfate binding ([1]; 3W + 0.2 mM TCDOC): −0.07 | n2 decylsulfate binding ([1]; 3W + 0.2 mM TCDOC): 6 | Kd ([1]; 3W + 0.2 mM TCDOC, read-out: K2^# decylsulfate binding): 540 µM | a1 decylsulfate binding ([1]; 3W + Chol (0.2 mM cholate)): 0.10 | n1 decylsulfate binding ([1]; 3W + Chol (0.2 mM cholate)): 1.5 | Kd ([1]; 3W + Chol (0.2 mM cholate), read-out: K1^# decylsulfate binding): 50 µM | a1 decylsulfate binding ([1]; 3W, no additive): 0.26 | a2 decylsulfate binding ([1]; 3W, no additive): 0.56 | n1 decylsulfate binding ([1]; 3W, no additive): 1.8 and 1.7 | n2 decylsulfate binding ([1]; 3W, no additive): 8 | Kd ([1]; 3W, no additive, read-out: K1^# decylsulfate binding): 60 µM | Kd ([1]; 3W, no additive, read-out: K2^# decylsulfate binding): 650 µM | a1 decylsulfate binding ([2]; 6W): −0.07 | a2 decylsulfate binding ([2]; 6W): −0.36 | n1 decylsulfate binding ([2]; 6W): 2.7 | n2 decylsulfate binding ([2]; 6W): 2.5 | a1 decylsulfate binding ([2]; 6W + 0.2 mM TCDOC): −0.09 | a2 decylsulfate binding ([2]; 6W + 0.2 mM TCDOC): −1.1 | n2 decylsulfate binding ([2]; 6W + 0.2 mM TCDOC): 2.0 | Kd ([2]; 6W + 0.2 mM TCDOC, read-out: K2^# decylsulfate binding): 650 µM | Kd ([2]; 6W, read-out: K1^# decylsulfate binding): 50 µM | Kd ([2]; 6W, read-out: K2^# decylsulfate binding): 510 µM

C/C=C1\C(=O)C[C@H]2[C@@H]3CCC4=CC(=O)CC[C@]4(C)[C@H]3CC[C@]12C [Guggulosterone]
Relative Rate-lowering (%) Activity, pPLA2 [3]: 85% | Relative Rate-lowering (%) Activity, hPLA2 [4]: 53%

C[C@H](CCC(=O)NCC(=O)O)[C@H]1CC[C@H]2[C@@H]3CC[C@@H]4C[C@H](O)CC[C@]4(C)[C@H]3C[C@H](O)[C@]12C [GDOC, glycodeoxycholate]
effect of bile salt on the rate of hydrolysis (monophasic/biphasic) [5]: biphasic effect

O=C1[C@H](CC[C@H](O)c2ccc(F)cc2)[C@@H](c2ccc(O)cc2)N1c1ccc(F)cc1 [Ezetimibe]
reported side effects [6]: hepatotoxicity, cholestatic hepatitis, acute autoimmune hepatitis, myopathy, and modulation of monocytic raft assembly | Relative Rate-lowering (%) Activity, pPLA2 [3]: 30% | relative effectiveness in lowering the rate with pig pancreatic PLA2 ([3]; DMPC vesicles containing 0.05 mole fraction cholate, FIG. 6): more effective | Relative Rate-lowering (%) Activity, hPLA2 [4]: 5%

C[C@H](CCC(=O)O)[C@H]1CC[C@H]2[C@@H]3[C@@H](O)C[C@@H]4C[C@H](O)CC[C@]4(C)[C@H]3CC[C@]12C [UDOC, ursodeoxycholate]
Kd [7]: 2 to 38 µM and 37 µM

C[C@H](CCC(=O)NCC(=O)O)[C@H]1CC[C@H]2[C@@H]3[C@H](O)C[C@@H]4C[C@H](O)CC[C@]4(C)[C@H]3C[C@H](O)[C@]12C [glycocholate]
effect of bile salt on the rate of hydrolysis (monophasic/biphasic) [5]: biphasic effect
